Columns and labels:
[1] = tested on: yeast cells; assay: Intracellular ATP by luciferase bioluminescence, yeast; assay type: cell-based, Saccharomyces cerevisiae; conditions: 50-fold the MIC, overnight treatment
Description: The procedure described by Lehtinen et al. was followed, with the modifications indicated herein. In the case of bacteria, 1.5 OD600 units were incubated overnight in 1 mL of final volume with 5-fold MIC concentrations. Then, the cells were collected, washed 3 times in 20 mM phosphate buffer pH 7.4, and lysed in 200 μL of LS1 (50 mM of glucose, 25 mM of Tris-HCl pH 8.0, and 10 mM of EDTA pH 8.0) containing 5 mg/mL of lysozyme and the same volume of glass beads (425–600 μm), by stirring 10 times for 15 s each. Then, the solution was centrifuged at 14,800× g for 15 min, and the supernatant was used for a luciferase assay. For this purpose, in each well of a microtiter plate, 100 μL of luciferase assay buffer (0.015 M of MgSO4, 0.015 M of KH2PO4 pH 8, 0.004 M of EGTA pH 8, and 2 mM of DTT) was added together to a 50 μL of 0.3 mg/mL luciferin solution in 0.01% (w/v) Triton X-100 and 50 μL of the cell extract. Finally, 15 μL of a 67 μg/mL aqueous solution of luciferase was added. Light emission was immediately detected using a Luminoskan Ascent instrument (Thermo Scientific, Waltham, MA, USA) for 1 s per well. Glass beads, lysozyme, luciferin, and luciferase were purchased from Sigma-Aldrich.
[…] Then, cells were collected and washed as above and resuspended in 500 μL of LS2 (140 mM of NaCl, 1.5 mM of MgCl2, 10 mM of Tris-HCl pH 8.0, and 0.5% (v/v) NP40). Cells were lysed in the presence of 1 volume of glass beads as described above. The next steps were carried out as in the case of bacterial samples.
Experiments were carried out at least in triplicate in all cases, and control drugs and SDS (0.1% (w/v) of the final concentration) were also included.

[2] = tested on: E. coli; assay: Lytic activity, time-kill (OD600), E. coli; assay type: cell-based, Escherichia coli; conditions: 5 times the MIC
Description: To determine if the compounds showing microbicidal activity induce cell lysis, the procedure described by Fleeman et al. was followed, with the modifications indicated below. The E. coli and S. aureus strains were grown as in the experiments described earlier. The cells corresponding to 1.5 units of OD600 were collected and resuspended in 1% BP after washing in the same medium. They were incubated in a final volume of 1 mL with concentrations 5 times higher than the MIC of the analysed compounds, and OD600 was monitored over time. Other antimicrobial compounds were also used in this study as controls. The experiments were performed in triplicate.

[3] = tested on: S. aureus; assay: Checkerboard titration synergy, S. aureus; assay type: cell-based, Staphylococcus aureus; conditions: synergistic when FICI ≤0.5
Description: The combined antimicrobial activity of the test compounds with the antibacterial or antifungal control agents was performed under the same conditions used for the MIC determination and following the procedures described by Carton Herrán, Reis de Sá et al. and Zharkova et al.. For each experiment, 16 samples (4 rows × 4 columns) in a total volume of 0.5 mL were prepared in tubes using an array of combinations between the MIC value and 0 μg/mL of the compound to be tested in each row, and between the MIC value and 0 μg/mL of the reference drug in each column. In this way, a variety of mixtures with different concentrations of them alone or in combination was obtained. Briefly, 0.5 mL of a microorganism culture was added to each one of the samples, and after incubation for 24 h with shaking at the appropriate temperature (37 °C or 30 °C), the tubs were visually inspected, and the OD600 was measured. From this information, the fractional inhibitory concentration index (FICI) was calculated according to the formula FIC index = ([A]/[CMI A]) + ([B]/[CMI B]), where [A] and [B] are respective concentrations of tested polyamine and reference drug in their combination effectively inhibiting the growth of bacteria or yeast, and [MIC A] and [MIC B] are the individual MICs of the tested polyamine and reference drug when they are used alone. An interaction is considered synergistic when the FICI value is ≤0.5 [41, 42].
To confirm the data obtained in the checkerboard assay, 30 μL of a ten-fold dilution of the tubes containing concentrations of half of the MIC of each one of the compounds alone (polyamine to be tested and reference drug) and one fourth of the MIC of each one in combination were also spread in LB or SC-ura plates (according to the microorganism considered in each case) and incubated at 37 °C or 30 °C. The visualisation of these plates was performed after 24 or 48 h, respectively. All these experiments were carried out in triplicate.

[4] = tested on: human Jurkat cell line; assay: Cytotoxicity, flow cytometry viability assay with propidium iodide; assay type: cell-based; conditions: 24 h treatment, average of three experiments
Method in brief: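 Jurkat cells in RPMI 1640 with 5% FCS exposed to a concentration range of compound or PBS for 24 h. Dead cells scored as PI-positive events (3.75 μM PI, 5 min, room temperature) by flow cytometry, 10,000 events per sample. IC50 obtained by curve fitting; triplicates.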

Compound | Intracellular ATP level relative to untreated cells [1] | Lytic activity (OD600 over time) [2] | Synergy with Ampicillin [3] | Synergy with Ciprofloxacin [3] | Synergy with Doxycycline [3] | Synergy with Gentamicin [3] | IC50, cytotoxicity on the human Jurkat cell line [4] [µg/mL]
c1cc2nc(c1)CNCCN(CCNCc1ccc3c(c1)OCO3)CCNC2 [Compound 5a, 2-(3,6,9-triaza-1(2,6)-pyridinacyclodecaphane-6-yl)-N-(benzo[d][1,3]dioxol-5-ylmethyl)ethan-1-amine] | 50–70% | do not have a lytic effect | – | – | – | – | –
Oc1ccccc1CNCCN1CCNCc2cccc(n2)CNCC1 [Compound 6a] | 50–70% | do not have a lytic effect | no synergy and - | no synergy and - | no synergy and - | no synergy and - | –
N^1-(benzo[d][1,3]dioxol-5-ylmethyl)-N^3-(2-((2-((3-((benzo[d][1,3]dioxol-5-ylmethyl)amino)propyl)amino)ethyl)(2-((3-(((2,3-dihydrobenzofuran-6-yl)methyl)amino)propyl)amino)ethyl)amino)ethyl)propane-1,3-diamine [Compound 4a] | – | – | – | – | – | – | 76.86
